Test system: C33A cells
Assay: Colony formation assay
Type: cell-based, human
Conditions: 14 days culture, compared to blank control
Experimental: Cells treated with drugs were separately seeded in a 6-well plate and cultured continuously for 14 days. During this period, the culture medium was changed every 2-3 days. Once visible cell colonies formed, the culture medium was removed, and the cells were fixed with 4% paraformaldehyde for 30 minutes, followed by staining with 0.1% crystal violet for 30 minutes. Finally, the colonies were counted and photographed using an optical microscope.

Structure (SMILES): N.N.[Cl][Pt][Cl] [cisplatin]
- number of C33A colonies, single agent: decreased

Reference: publication PMC10577221, “A cyclic peptide-based PROTAC induces intracellular degradation of palmitoyltransferase and potently decreases PD-L1 expression in human cervical cancer cells” (Frontiers in Immunology, 2023)
